Here are results for 5 molecules from publication PMC6453916, “Radical-mediated C-S bond cleavage in C2 sulfonate degradation by anaerobic bacteria” (Nature Communications, 2019).

Data set [1] addresses T1, TauF (BwTauF, sulfoacetaldehyde reductase) (Bilophila wadsworthia, UniProt E5Y946).
T1 construct: gene sarD; codon-optimised, His6-TEV (HT) vector, E. coli
T1 sequence (E5Y946 1-387): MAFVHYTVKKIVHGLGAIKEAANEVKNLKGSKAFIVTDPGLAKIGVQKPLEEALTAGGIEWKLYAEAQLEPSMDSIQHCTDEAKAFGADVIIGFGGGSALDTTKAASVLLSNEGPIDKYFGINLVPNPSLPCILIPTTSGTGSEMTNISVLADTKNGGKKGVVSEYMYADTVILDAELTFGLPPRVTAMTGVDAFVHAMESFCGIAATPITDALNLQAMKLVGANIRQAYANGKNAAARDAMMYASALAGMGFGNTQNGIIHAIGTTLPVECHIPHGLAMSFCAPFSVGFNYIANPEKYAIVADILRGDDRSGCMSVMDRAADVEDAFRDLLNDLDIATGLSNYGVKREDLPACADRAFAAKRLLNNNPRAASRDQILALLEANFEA
The data set is described as follows: NADH oxidation at […] nm. In kind it is biochemical. As to conditions: 5 mM sulfoacetaldehyde (introduced as bisulfite adduct), 0.5 mM NADH, 0.1 M Tris pH 7.5, 0.1 M KCl.

Data set [2] concerns the target T2, DpIseK (substrate-binding subunit of the IseG-associated TRAP transporter) (Desulfovibrio piger, UniProt A0A1K1LFE7).
T2 construct: gene DESPIGER_1592; soluble periplasmic subunit, codon-optimised, expressed as His6-MBP-TEV fusion; MBP tag cleaved and removed before ITC
The data set is described as follows: isothermal titration calorimetry. On the technique in general: In ITC the heat of successive injections is recorded.

The target of data set [3] is IseG (−23 a.a.), isethionate sulfo-lyase from Desulfovibrio vulgaris Hildenborough with an N-terminal 23-a.a. truncation (Desulfovibrio vulgaris Hildenborough) (UniProt Q727N1). The data set is described as follows: SEC; 2.5 mg/mL IseG (−23 a.a.), 2 mL on a Superdex 200 column (300 mL), buffer D (10 mM HEPES/KOH pH 7.4, 250 mM KCl, 10 mM BME), 3 mL/min; mass from elution volume against molecular weight markers (observed 196 kDa, monomer calculated 91.3 kDa).

Substrate in the data set “purified protein”: O=S(=O)(O)CCO
The data set is described as follows: purified protein. The data set is classed as biochemical, Nitratidesulfovibrio vulgaris. As to conditions: IseG activated by IseH, SAM and Ti(III) citrate; anaerobic, room temperature, 250 nM IseG.

T2 sequence (A0A1K1LFE7 24-332): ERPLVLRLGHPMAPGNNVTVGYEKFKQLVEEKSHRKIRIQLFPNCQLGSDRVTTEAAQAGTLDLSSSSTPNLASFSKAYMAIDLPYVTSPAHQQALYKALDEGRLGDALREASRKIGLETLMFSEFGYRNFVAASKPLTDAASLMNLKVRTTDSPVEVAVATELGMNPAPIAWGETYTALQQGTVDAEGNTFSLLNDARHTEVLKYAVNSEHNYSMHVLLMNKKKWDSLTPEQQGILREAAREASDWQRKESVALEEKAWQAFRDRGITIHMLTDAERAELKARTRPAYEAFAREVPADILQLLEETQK

Take `NC(=O)C1=CN([C@@H]2O[C@H](COP(=O)(O)OP(=O)(O)OC[C@H]3O[C@@H](n4cnc5c(N)ncnc54)[C@H](O)[C@@H]3O)[C@@H](O)[C@H]2O)C=CC1` [NADH]: in data set [1], the “NADH oxidation at 340 nm” value is “demonstrates that BwTauF is a sulfoacetaldehyde reductase”.
The term Kd denotes the concentration at which binding is half-saturated. High values mean lower affinity, low ones higher affinity. In data set [2], `O=S(=O)(O)CCO` [isethionate] came in with a Kd of 500 nM. That is a sub-micromolar value.
On to `O=CCS(=O)(=O)O` [sulfoacetaldehyde], for which the “NADH oxidation at 340 nm” value in data set [1] was “TauF, catalyzed NADH-dependent reduction of sulfoacetaldehyde”.
Broadly, the stoichiometry N is the number of molecules, sites or subunits per partner or assembly. Turning to “IseG (−23 a.a.), isethionate sulfo-lyase from Desulfovibrio vulgaris Hildenborough with an N-terminal 23-a.a. truncation (from UniProt Q727N1 24-828) (enzyme)”, the stoichiometry N in data set [3] was 2.

B1: IseG (GUF, isethionate sulfo-lyase) (Nitratidesulfovibrio vulgaris str. Hildenborough) (protein)
chain: MQCCNQLSPHEQRLQDKIEGKVDRYRATHERVFTILESFDNTRPRIDVERAKYFTESMKATEGQPLPLRWAKALMHIAENMTVYIDDHQLICGRAGYQGRYGVLYPELDGDFLGTAIEDLPNRAESPFAITPEDARVVVEEIAPFWKGKTYHEALNLALPADVHKLTYDDPQGLMSRFIVNETSSFRSSIQWVHDYEKVLKRGFRSIKEEALEKIAALDPMSPCDNVEKRPFLEAIVIVCDAIILWAKRHAKLAAELAAKETDPTRKRELETMAEICAWVPENPARTFHEAVQAQWFTQVFSRIEQKTGTIVSNGRMDQYFWPFYEKDLAEGRITEDSALELLECMWVGMAQYVDLYISPTGGAFNEGYAHWEAVTIGGQTPEGRDATNDLTYLFLKSKREFPLHYPDLAARIHSRSPERYLWEVAETIKDGSGFPKLINDEEVVPLYVSKGATFAEALDYAVSGCTEARMPNRDTYTSGGAYINFAAALEMVLYNGKMLKYGDTDLGAHTGDPCEFKTWEEFWNAYVTQHHLFLKTAFVQQHIINNLRARHFAQPMGSSLHDLCMKHCLDLHTPQIPEGINLGYFEYMGFGTVVDSLSAIKKLVFEDKKLTMGELIEALKCNFEGKEDIQQLLKSAPCYGNNDDYADSIARDIDALSVKYGRRYSPELGMHNDVRYVPFTSHVPFGRVVSATPNGRKAWSALSDGSSASHGADVNGPTAILQSNFNSKNYGMRDRAARMLNIKFTPKCVEGEEGSQKLVSFIRTFCDLKLWHVQFNVINKETLLAAQRDPEKYRNLIVRIAGYSAYFVDLSPDLQNDLIARTGHDVM
notes: pET-28a(+)-His6-IseG, codon-optimised, full length, His tag kept, E. coli BL21(DE3); dimer; glycyl radical installed by IseH/SAM/Ti(III) citrate
For orientation: Km means the substrate concentration at which the rate is half of its maximum. As a reminder, the kcat is the maximal rate divided by the concentration of active sites. As to B1, in the data set “purified protein”, the Km is 44.8 ± 3.5 mM and the kcat stood at 91.6 ± 3.3 s⁻¹.
